Measured values from ChEMBL document CHEMBL2029309, “Proposed Bioactive Conformations of Opiorphin, an Endogenous Dual APN/NEP Inhibitor” (ACS Med Chem Lett, 2012).
Peptide text beside a SMILES is read from it.

How the values were obtained:
Neprilysin [1] = target: T1, Neprilysin (Homo sapiens, UniProt P08473); assay: Inhibition of human neprilysin
Aminopeptidase N [2] = target: T2, Aminopeptidase N (Homo sapiens, UniProt P15144); assay: Inhibition of human aminopeptidase N
Neprilysin [3] = target: T1, Neprilysin; assay: Inhibition of human recombinant neprilysin using Abz-dR-G-L-EDDnp as substrate incubated for 10 mins prior to substrate addition measured for 40 mins by fluorometry
Aminopeptidase N [4] = target: T2, Aminopeptidase N; assay: Inhibition of human recombinant aminopeptidase N using Ala-Mca as substrate incubated for 10 mins prior to substrate addition measured for 40 mins by fluorometry

T1 sequence (P08473 whole entry): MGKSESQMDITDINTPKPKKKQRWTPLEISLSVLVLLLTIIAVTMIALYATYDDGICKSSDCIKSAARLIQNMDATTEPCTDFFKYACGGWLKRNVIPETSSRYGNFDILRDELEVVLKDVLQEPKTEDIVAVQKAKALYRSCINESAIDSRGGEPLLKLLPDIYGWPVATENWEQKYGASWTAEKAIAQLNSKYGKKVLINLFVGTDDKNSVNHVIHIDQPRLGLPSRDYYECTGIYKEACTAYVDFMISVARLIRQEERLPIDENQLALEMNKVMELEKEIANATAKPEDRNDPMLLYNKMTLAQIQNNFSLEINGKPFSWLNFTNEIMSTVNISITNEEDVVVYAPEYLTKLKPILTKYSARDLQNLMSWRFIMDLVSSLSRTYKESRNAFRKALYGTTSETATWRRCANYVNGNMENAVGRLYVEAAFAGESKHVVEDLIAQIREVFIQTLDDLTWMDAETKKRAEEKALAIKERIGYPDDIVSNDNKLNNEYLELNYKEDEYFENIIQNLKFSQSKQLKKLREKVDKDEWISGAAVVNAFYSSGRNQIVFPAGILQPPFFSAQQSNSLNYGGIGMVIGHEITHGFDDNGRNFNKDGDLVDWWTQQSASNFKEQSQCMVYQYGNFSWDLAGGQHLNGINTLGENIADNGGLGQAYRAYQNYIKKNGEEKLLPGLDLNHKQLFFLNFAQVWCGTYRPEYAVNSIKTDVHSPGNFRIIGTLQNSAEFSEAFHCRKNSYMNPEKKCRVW
T2 sequence (P15144 whole entry): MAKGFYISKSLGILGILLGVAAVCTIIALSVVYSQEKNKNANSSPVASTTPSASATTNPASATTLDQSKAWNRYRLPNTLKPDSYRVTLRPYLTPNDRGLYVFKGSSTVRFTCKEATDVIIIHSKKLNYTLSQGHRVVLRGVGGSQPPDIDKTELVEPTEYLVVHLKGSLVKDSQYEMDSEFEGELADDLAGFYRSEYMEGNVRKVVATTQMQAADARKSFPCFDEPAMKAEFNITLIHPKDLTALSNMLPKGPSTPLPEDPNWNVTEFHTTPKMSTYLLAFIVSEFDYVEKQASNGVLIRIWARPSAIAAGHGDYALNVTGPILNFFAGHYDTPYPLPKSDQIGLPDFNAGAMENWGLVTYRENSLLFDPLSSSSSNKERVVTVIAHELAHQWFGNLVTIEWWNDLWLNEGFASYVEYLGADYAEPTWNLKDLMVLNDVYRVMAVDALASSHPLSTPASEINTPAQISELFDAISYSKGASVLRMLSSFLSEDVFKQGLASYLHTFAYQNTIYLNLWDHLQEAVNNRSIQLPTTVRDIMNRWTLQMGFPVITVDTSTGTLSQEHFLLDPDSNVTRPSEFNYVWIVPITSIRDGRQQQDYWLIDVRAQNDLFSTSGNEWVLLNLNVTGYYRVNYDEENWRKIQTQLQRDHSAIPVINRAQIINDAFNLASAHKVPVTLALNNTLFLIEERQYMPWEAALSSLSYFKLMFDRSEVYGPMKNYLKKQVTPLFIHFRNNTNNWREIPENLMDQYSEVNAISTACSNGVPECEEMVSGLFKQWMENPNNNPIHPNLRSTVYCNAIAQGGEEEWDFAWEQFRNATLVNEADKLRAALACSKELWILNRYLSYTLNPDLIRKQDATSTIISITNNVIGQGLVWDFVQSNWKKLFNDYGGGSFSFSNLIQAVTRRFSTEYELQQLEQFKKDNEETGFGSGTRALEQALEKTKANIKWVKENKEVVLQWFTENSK

Molecule | IC50 (Neprilysin [1]) [µM] | IC50 (Aminopeptidase N [2]) [µM] | IC50 (Neprilysin [3]) [µM] | IC50 (Aminopeptidase N [4]) [µM]
N=C(N)NCCC[C@H](NC(=O)[C@@H](N)CCC(N)=O)C(=O)N[C@@H](Cc1ccccc1)C(=O)N[C@@H](CO)C(=O)O [OPIORPHIN (1-4)] (H-QRFS-OH) | > 100 | – | – | –
N=C(N)NCCC[C@H](NC(=O)[C@H](CO)NC(=O)[C@H](Cc1ccccc1)NC(=O)[C@@H](N)CCCNC(=N)N)C(=O)O [OPIORPHIN (2-5)] (H-RFSR-OH) | 180 | – | – | –
NC(N)=NCCC[C@H](NC(=O)[C@H](CO)NC(=O)[C@@H](N)Cc1ccccc1)C(=O)O [OPIORPHIN (3-5)] (H-Phe-Ser-Arg-OH) | 7 | 120 | – | –
H-FQRFSR-OH | – | – | 51 | 122
H-NRFSR-OH | – | – | 130 | > 100
H-QRFTR-OH | – | – | > 100 | > 100
